Assays:
adults with MDD [1] = assay: Phase 3 CORAL study: treatment-emergent adverse events (safety set); format: in vivo, human; details: 50 mg once daily 14 days co-initiated with ADT
Procedure: This was a randomized, double-blind, parallel-group, placebo-controlled study in adults with MDD. The diagnosis of MDD was made according to Structured Clinical Interview for Diagnostic and Statistical Manual of Mental Disorders, Fifth Edition (DSM-5) Clinical Trial Version (SCID 5-CT) performed by a qualified healthcare professional.
Participants were randomized to receive blinded Compound (1) 50 mg or placebo for administration each evening from Days 1 through 14. In addition, all participants received 1 of 2 classes of ADTs: a selective serotonin reuptake inhibitor (SSRI; sertraline, escitalopram, citalopram) or a serotonin-norepinephrine reuptake inhibitor (SNRI; duloxetine or desvenlafaxine) in an open-label manner from Day 1 through the end of the study. The ADT was administered per labeled prescribing information. The investigator assigned 1 of the 5 ADTs based on clinical standard of care; the participant must not have had been previously treated with the assigned ADT within the current depressive episode and must not have had taken any ADT within 30 days prior to Day 1 (or taken fluoxetine within 60 days prior to Day 1). Randomization was stratified by ADT class (SSRI or SNRI). […]

adults with MDD [2] = details: responders to first 14-day course of 50 mg who continued beyond Day 28; up to 1 year follow-up; cited from earlier work
patients with MDD or PPD = details: cited from earlier work
[3] = tested on: patients with major depressive disorder (MDD); details: TEAEs: nausea/vomiting, diarrhoea, abdominal pain, dyspepsia, anorexia, dry mouth; cited from earlier work

In the case of `C[C@@]1(O)CC[C@H]2[C@H](CC[C@@H]3[C@@H]2CC[C@]2(C)[C@@H](C(=O)Cn4cc(C#N)cn4)CC[C@@H]32)C1` [Compound (1), 1-(2-((3R,5R,8R,9R,10S,13S,14S,17S)-3-hydroxy-3,13-dimethylhexadecahydro-1H-cyclopenta[a]phenanthren-17-yl)-2-oxoethyl)-1H-pyrazole-4-carbonitrile], the “tolerability (in words)” value (adults with MDD [1]) is listed as “generally-well tolerated”, the “patients who received a total of 1 or 2 treatment courses” value (adults with MDD [2]) is listed as “approximately 80%” and the “onset of effect on depressive symptoms” value (patients with MDD or PPD; 50 mg vs placebo, patients with MDD or PPD) is listed as “Day 2 or 3”. For the same compound, the minimally effective dose (patients with MDD or PPD; previous Compound (1) studies in MDD) was 30 mg.

For `CN(C)CCC[C@@]1(c2ccc(F)cc2)OCc2cc(C#N)ccc21` [escitalopram], the “tolerability on the gastrointestinal tract among antidepressants (in words)” value [3] is given as “least tolerated”.

For `CN[C@H]1CC[C@@H](c2ccc(Cl)c(Cl)c2)c2ccccc21` [sertraline], the “tolerability on the gastrointestinal tract among antidepressants (in words)” value [3] is given as “least tolerated”.

From patent publication US20250295674A1, “NEUROACTIVE STEROIDS FOR TREATMENT OF CNS-RELATED DISORDERS” (Sage Therapeutics, Inc., priority 2022, published 2025)
